{"source": "patent US20110086920A1", "about": "“Gamma Glutamylcysteine Treatment or Prevention of Oxidative Injury” (priority 2007, published 2011)", "key": {"[1]": {"settings": "rat, in vivo", "experimental": "(§1) FIG. 2: IV γ-glutamylcysteine Supplementation in Rats. Two rats were administered γ-glutamylcysteine intravenously. […] Plasma was collected at 0, 15, 30, 60, 90, and 120 minutes post-administration and assayed for γ-glutamylcysteine levels.\n(§2) Two rats were administered γ-glutamylcysteine intravenously. […] Plasma was collected at 0, 15, 30, 60, 90, and 120 minutes post-administration and assayed for γ-glutamylcysteine levels."}, "glutathione": {"test_system": "glutathione", "experiment": "Tissue glutathione levels after intravenous γ-glutamylcysteine supplementation in rats", "assay_type": "in vivo", "settings": "for Tissue Glutathione Concentration: rats 400 mg/kg IV, mean (95% CI)", "experimental": "Ten rats were also administered 400 mg/kg of γ-glutamylcysteine intravenously. Major organ tissues were harvested from these rats at 0, 30, 60, 90, 120, and 240 minutes and assayed for glutathione concentration. […] [table]"}, "neuronal cells": {"test_system": "neuronal cells", "experiment": "F2-IsoPs level (oxidative stress) in neuronal cells exposed to H2O2", "assay_type": "cell-based", "settings": "neuronal cells pretreated with GGC 500 μM four hours prior to exposure to H2O2", "source_text": "To quantify the oxidative stress response, as well as modification of this response by γ-glutamylcysteine supplementation, the inventors will measure isoprostane and isofuran levels. Isoprostanes are prostaglandin like compounds that are produced without cyclooxygenase by free radical induced peroxidation of arachidonic acid. Prostaglandin F2α like compounds, termed F2-isoprostanes (F2IsoPs) have been shown both in vitro and in vivo to be an accurate measure of oxidative stress."}, "Neurons and Astrocytes": {"test_system": "Neurons and Astrocytes", "experiment": "Cell death after H2O2 oxidative stress in vitro (MTT, LDH, GSH assays)", "assay_type": "cell-based", "settings": "γ-glutamylcysteine 500 μM; 10 μM H2O2", "source_text": "FIGS. 1A-F: Effects of γ-glutamylcysteine on Neurons and Astrocytes. Protection of cells as measured by MTT (3-(4,5-Dimethylthiazol-2-yl)-2,5-diphenyltetrazolium bromide) assay, GSH (glutathione) assay, and LDH (lactate dehydrogenase) assay."}, "[2]": {"experiment": "Plasma γ-glutamylcysteine levels after intravenous administration in rats", "assay_type": "in vivo", "experimental": "as §1, §2"}}}
{"smiles": "N[C@@H](CCC(=O)N[C@@H](CS)C(=O)O)C(=O)O", "note": "[γ-glutamylcysteine]", "values": [{"measurement": "tolerability of intravenous supplementation", "setting": "[1]", "value": "well-tolerated"}, {"measurement": "clinically visible signs of toxicity", "setting": "[1]; iv", "value": "no clinically visible signs of toxicity"}, {"measurement": "Tissue Glutathione Concentration", "setting": "glutathione; Brain, 0 min, n=5", "value": "57.3 (3.3-111.3) μM"}, {"measurement": "Tissue Glutathione Concentration", "setting": "glutathione; Brain, 60 min, n=4", "value": "302.3 (190.0-414.5) μM"}, {"measurement": "Tissue Glutathione Concentration", "setting": "glutathione; Brain, 90 min, n=2", "value": "146.9 (−1200.5-1494.3) μM"}, {"measurement": "Tissue Glutathione Concentration", "setting": "glutathione; Brain, 120 min, n=2", "value": "170.7 (152.0-189.5) μM"}, {"measurement": "Tissue Glutathione Concentration", "setting": "glutathione; Brain, 240 min, n=2", "value": "110.7 (54.1-167.3) μM"}, {"measurement": "Tissue Glutathione Concentration", "setting": "glutathione; GI, 0 min, n=5", "value": "12.9 (7.2-18.5) μM"}, {"measurement": "Tissue Glutathione Concentration", "setting": "glutathione; GI, 60 min, n=4", "value": "189.8 (−5.5-385.0) μM"}, {"measurement": "Tissue Glutathione Concentration", "setting": "glutathione; GI, 90 min, n=2", "value": "166.8 (−1699.0-2032.5) μM"}, {"measurement": "Tissue Glutathione Concentration", "setting": "glutathione; GI, 120 min, n=2", "value": "14.0 (−1.6-29.6) μM"}, {"measurement": "Tissue Glutathione Concentration", "setting": "glutathione; GI, 240 min, n=2", "value": "18.5 (−100.3-137.3) μM"}, {"measurement": "Tissue Glutathione Concentration", "setting": "glutathione; Heart, 0 min, n=5", "value": "210.9 (34.4-387.4) μM"}, {"measurement": "Tissue Glutathione Concentration", "setting": "glutathione; Heart, 60 min, n=4", "value": "353.4 (220.9-486.0) μM"}, {"measurement": "Tissue Glutathione Concentration", "setting": "glutathione; Heart, 90 min, n=2", "value": "658.9 (504.5-813.2) μM"}, {"measurement": "Tissue Glutathione Concentration", "setting": "glutathione; Heart, 120 min, n=2", "value": "165.9 (149.4-182.4) μM"}, {"measurement": "Tissue Glutathione Concentration", "setting": "glutathione; Heart, 240 min, n=2", "value": "278.1 (170.7-385.4) μM"}, {"measurement": "Tissue Glutathione Concentration", "setting": "glutathione; Kidney, 0 min, n=5", "value": "14.9 (4.5-25.2) μM"}, {"measurement": "Tissue Glutathione Concentration", "setting": "glutathione; Kidney, 60 min, n=4", "value": "13.5 (−9.1-36.2) μM"}, {"measurement": "Tissue Glutathione Concentration", "setting": "glutathione; Kidney, 90 min, n=2", "value": "39.1 (−195.0-273.2) μM"}, {"measurement": "Tissue Glutathione Concentration", "setting": "glutathione; Kidney, 120 min, n=2", "value": "13.4 (−16.9-43.6) μM"}, {"measurement": "Tissue Glutathione Concentration", "setting": "glutathione; Kidney, 240 min, n=2", "value": "10.2 (−8.9-29.3) μM"}, {"measurement": "Tissue Glutathione Concentration", "setting": "glutathione; Liver, 0 min, n=5", "value": "2162.4 (1490.3-2834.5) μM"}, {"measurement": "Tissue Glutathione Concentration", "setting": "glutathione; Liver, 60 min, n=4", "value": "5066.4 (−85.9-10218.8) μM"}, {"measurement": "Tissue Glutathione Concentration", "setting": "glutathione; Liver, 90 min, n=2", "value": "10832.6 (9616.0-12049.1) μM"}, {"measurement": "Tissue Glutathione Concentration", "setting": "glutathione; Liver, 120 min, n=2", "value": "2990.0 (2239.8-3740.1) μM"}, {"measurement": "Tissue Glutathione Concentration", "setting": "glutathione; Liver, 240 min, n=2", "value": "4213.7 (−6431.5-14858.8) μM"}, {"measurement": "Tissue Glutathione Concentration", "setting": "glutathione; Lung, 0 min, n=5", "value": "142.2 (50.8-233.7) μM"}, {"measurement": "Tissue Glutathione Concentration", "setting": "glutathione; Lung, 60 min, n=4", "value": "293.5 (248.6-338.4) μM"}, {"measurement": "Tissue Glutathione Concentration", "setting": "glutathione; Lung, 90 min, n=2", "value": "412.2 (−571.1-1395.4) μM"}, {"measurement": "Tissue Glutathione Concentration", "setting": "glutathione; Lung, 120 min, n=2", "value": "166.4 (−58.3-391.0) μM"}, {"measurement": "Tissue Glutathione Concentration", "setting": "glutathione; Lung, 240 min, n=2", "value": "93.2 (−261.7-448.1) μM"}, {"measurement": "Tissue Glutathione Concentration", "setting": "glutathione; Muscle, 0 min, n=5", "value": "228.5 (125-0-331.9) μM"}, {"measurement": "Tissue Glutathione Concentration", "setting": "glutathione; Muscle, 60 min, n=4", "value": "307.6 (−1.1-616.3) μM"}, {"measurement": "Tissue Glutathione Concentration", "setting": "glutathione; Muscle, 90 min, n=2", "value": "654.5 (44.8-1264.2) μM"}, {"measurement": "Tissue Glutathione Concentration", "setting": "glutathione; Muscle, 120 min, n=2", "value": "170.5 (−137.5-478.6) μM"}, {"measurement": "Tissue Glutathione Concentration", "setting": "glutathione; Muscle, 240 min, n=2", "value": "21.9 (−16.3-60.1) μM"}, {"measurement": "mean glutathione levels in brain, heart, lung, liver, kidney, gastrointestinal and muscle tissues", "setting": "glutathione; rats, 400 mg/kg intravenous", "value": "increased"}, {"measurement": "tissue glutathione levels", "setting": "glutathione; rats, intravenous", "value": "significant elevation"}, {"measurement": "level of F2-IsoPs (oxidative stress)", "setting": "neuronal cells", "value": "reduced"}, {"measurement": "cell death after exposure to H2O2", "setting": "Neurons and Astrocytes", "value": "significantly reduce cell death"}, {"measurement": "plasma γ-glutamylcysteine levels", "setting": "[2]; rats", "value": "significant elevation"}, {"measurement": "time of peak plasma γ-glutamylcysteine concentration post-injection", "setting": "[2]; two rats, plasma at 0-120 min", "value": 30, "unit": "min"}]}
